Among the data in PubChem BioAssay (NCI) are TGI values, retold here.

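Interpolation was linear, between the two tested concentrations surrounding the appropriate level; five concentrations were tested over 48 hours in 96-well plates. Definition used: TGI = concentration required for complete inhibition of growth.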

For one test, the system named is EKVX NSCLC. Kind of test: NCI tumour cell line growth inhibition, 48 h.
`NC(N)=NCC[C@H](NC(=O)OCCCCCn1ccc(=O)[nH]c1=O)C(=O)O`: the TGI was > 100 µM.

In the case of `O=C(c1ccccc1)c1ccc2nc(-c3c(Cl)c(Cl)c(Cl)c(Cl)c3C(=O)N/N=C/c3ccc(Cl)cc3)[nH]c2c1`, the TGI is > 100 µM.

As to `CSc1nc2c(c(=O)[nH]1)N=C(c1ccc([N+](=O)[O-])cc1)CC(c1ccccc1)N2` (configuration not stated), the TGI was > 100 µM.

`COC1/C=C/C(C)C(C(C)C(OC)C(C)CCC(=O)C(C)C(C/C=C/N(C)C=O)OC)OC(=O)C=CC2OC2(C)CC(OC)C(OC)C2=CC(=O)O[C@@H](C(C)C(OC)CC(OC)/C=C/C(C)C(O)C1)[C@H]2O` (some centres not stated) displayed a TGI of 0.0163 µM.

Turning to `CC(=O)Nc1ccc(C(O)/C(=N/N)c2nc3ccc(Cl)cc3[nH]c2=O)cc1` (configuration not stated), the TGI was > 100 µM.

For `CC1CC(C)C(C#N)N(C)c2ccccc21` (configuration not stated), the TGI was > 100 µM.

With `NC(N)=NCCCC(NC(=O)c1cccc2c(=O)c3ccccc3[nH]c12)C(=O)O` (configuration not stated), the TGI was > 100 µM.

Take `O=C(NNCC(O)COc1ccccc1)c1ccccc1` (configuration not stated): the TGI was > 100 µM.

As to `COC(=O)[C@@H]1CC(C(C[N+](=O)[O-])c2ccc(O[Si](C)(C)C(C)(C)C)cc2)C(=O)N1C(=O)OC(C)(C)C` (some centres not stated), the TGI is > 100 µM.

As for `CC(=O)C1C(=O)C(=O)N(c2cccc([N+](=O)[O-])c2)C1=O` (configuration not stated), the TGI is > 100 µM.

For the compound `CCN(CC)CC1CCCCN1CC(=O)N1c2ccccc2C(=O)Nc2cccnc21` (configuration not stated), the TGI was > 100 µM.

In the case of `O=C(NC1=C(Cl)C(=O)c2ccccc2C1=O)c1ccc(F)cc1`, the TGI amounted to 78.9 µM.

Turning to `CCC(CCCN)Nc1cc(OC)cc2c(C)ccnc12` (configuration not stated), the TGI came out at 36.3 µM.

Another test relates to SW-620 colon. Kind of test: NCI tumour cell line growth inhibition, 48 h.
As for `CCOC(=O)C1C(c2ccc3c(c2)OCO3)c2c([nH][nH]c2=O)CC1(C)O` (configuration not stated), the TGI is > 100 µM.

Consider `NC(N)=NCC[C@H](NC(=O)OCCCCCn1ccc(=O)[nH]c1=O)C(=O)O`, for which the TGI was > 100 µM.

For the compound `O=C(c1ccccc1)c1ccc2nc(-c3c(Cl)c(Cl)c(Cl)c(Cl)c3C(=O)N/N=C/c3ccc(Cl)cc3)[nH]c2c1`, the TGI is > 100 µM.

The compound `CSc1nc2c(c(=O)[nH]1)N=C(c1ccc([N+](=O)[O-])cc1)CC(c1ccccc1)N2` (configuration not stated) returned a TGI of 91.7 µM.

Regarding `CC(=O)Nc1ccc(C(O)/C(=N/N)c2nc3ccc(Cl)cc3[nH]c2=O)cc1` (configuration not stated), the TGI was > 100 µM.

As for `CC1CC(C)C(C#N)N(C)c2ccccc21` (configuration not stated), the TGI was > 100 µM.

In the case of `NC(N)=NCCCC(NC(=O)c1cccc2c(=O)c3ccccc3[nH]c12)C(=O)O` (configuration not stated), the TGI is > 100 µM.

With `O=C(NNCC(O)COc1ccccc1)c1ccccc1` (configuration not stated), the TGI is > 100 µM.

Consider `COC(=O)[C@@H]1CC(C(C[N+](=O)[O-])c2ccc(O[Si](C)(C)C(C)(C)C)cc2)C(=O)N1C(=O)OC(C)(C)C` (some centres not stated), for which the TGI was > 100 µM.

Consider `CC(=O)C1C(=O)C(=O)N(c2cccc([N+](=O)[O-])c2)C1=O` (configuration not stated), for which the TGI is > 100 µM.

For the compound `CCN(CC)CC1CCCCN1CC(=O)N1c2ccccc2C(=O)Nc2cccnc21` (configuration not stated), the TGI is > 100 µM.

With `O=C(NC1=C(Cl)C(=O)c2ccccc2C1=O)c1ccc(F)cc1`, the TGI amounted to 2.51 µM.

For the compound `CCC(CCCN)Nc1cc(OC)cc2c(C)ccnc12` (configuration not stated), the TGI is 36.9 µM.

The next test concerns NCI-H522 lung. Kind of test: NCI tumour cell line growth inhibition, 48 h.
With `CCOC(=O)C1C(c2ccc3c(c2)OCO3)c2c([nH][nH]c2=O)CC1(C)O` (configuration not stated), the TGI is > 100 µM.

As to `O=C(c1ccccc1)c1ccc2nc(-c3c(Cl)c(Cl)c(Cl)c(Cl)c3C(=O)N/N=C/c3ccc(Cl)cc3)[nH]c2c1`, the TGI was > 100 µM.

In the case of `CSc1nc2c(c(=O)[nH]1)N=C(c1ccc([N+](=O)[O-])cc1)CC(c1ccccc1)N2` (configuration not stated), the TGI is > 100 µM.

As to `COC1/C=C/C(C)C(C(C)C(OC)C(C)CCC(=O)C(C)C(C/C=C/N(C)C=O)OC)OC(=O)C=CC2OC2(C)CC(OC)C(OC)C2=CC(=O)O[C@@H](C(C)C(OC)CC(OC)/C=C/C(C)C(O)C1)[C@H]2O` (some centres not stated), the TGI is 0.0296 µM.

As for `CC(=O)Nc1ccc(C(O)/C(=N/N)c2nc3ccc(Cl)cc3[nH]c2=O)cc1` (configuration not stated), the TGI is > 100 µM.

Turning to `NC(N)=NCCCC(NC(=O)c1cccc2c(=O)c3ccccc3[nH]c12)C(=O)O` (configuration not stated), the TGI is > 100 µM.

Regarding `O=C(NNCC(O)COc1ccccc1)c1ccccc1` (configuration not stated), the TGI was > 100 µM.

Turning to `COC(=O)[C@@H]1CC(C(C[N+](=O)[O-])c2ccc(O[Si](C)(C)C(C)(C)C)cc2)C(=O)N1C(=O)OC(C)(C)C` (some centres not stated), the TGI is > 100 µM.

Regarding `CC(=O)C1C(=O)C(=O)N(c2cccc([N+](=O)[O-])c2)C1=O` (configuration not stated), the TGI is > 100 µM.

Regarding `CCN(CC)CC1CCCCN1CC(=O)N1c2ccccc2C(=O)Nc2cccnc21` (configuration not stated), the TGI was > 100 µM.

In the case of `O=C(NC1=C(Cl)C(=O)c2ccccc2C1=O)c1ccc(F)cc1`, the TGI was 1.84 µM.

A further test concerns IGROV1 ovarian. The test is described as follows: NCI tumour cell line growth inhibition, 48 h.
On to `CCOC(=O)C1C(c2ccc3c(c2)OCO3)c2c([nH][nH]c2=O)CC1(C)O` (configuration not stated), for which the TGI is > 100 µM.

Turning to `O=C(c1ccccc1)c1ccc2nc(-c3c(Cl)c(Cl)c(Cl)c(Cl)c3C(=O)N/N=C/c3ccc(Cl)cc3)[nH]c2c1`, the TGI was > 100 µM.

Take `CSc1nc2c(c(=O)[nH]1)N=C(c1ccc([N+](=O)[O-])cc1)CC(c1ccccc1)N2` (configuration not stated): the TGI is > 100 µM.

In turn, `COC1/C=C/C(C)C(C(C)C(OC)C(C)CCC(=O)C(C)C(C/C=C/N(C)C=O)OC)OC(=O)C=CC2OC2(C)CC(OC)C(OC)C2=CC(=O)O[C@@H](C(C)C(OC)CC(OC)/C=C/C(C)C(O)C1)[C@H]2O` (some centres not stated) registered a TGI of 0.00369 µM.

Consider `CC(=O)Nc1ccc(C(O)/C(=N/N)c2nc3ccc(Cl)cc3[nH]c2=O)cc1` (configuration not stated), for which the TGI is > 100 µM.

With `CC1CC(C)C(C#N)N(C)c2ccccc21` (configuration not stated), the TGI is > 100 µM.

Take `NC(N)=NCCCC(NC(=O)c1cccc2c(=O)c3ccccc3[nH]c12)C(=O)O` (configuration not stated): the TGI is > 100 µM.

Consider `O=C(NNCC(O)COc1ccccc1)c1ccccc1` (configuration not stated), for which the TGI is > 100 µM.

As for `COC(=O)[C@@H]1CC(C(C[N+](=O)[O-])c2ccc(O[Si](C)(C)C(C)(C)C)cc2)C(=O)N1C(=O)OC(C)(C)C` (some centres not stated), the TGI was > 100 µM.

On to `CC(=O)C1C(=O)C(=O)N(c2cccc([N+](=O)[O-])c2)C1=O` (configuration not stated), for which the TGI is > 100 µM.

Take `CCN(CC)CC1CCCCN1CC(=O)N1c2ccccc2C(=O)Nc2cccnc21` (configuration not stated): the TGI is > 100 µM.

`O=C(NC1=C(Cl)C(=O)c2ccccc2C1=O)c1ccc(F)cc1` returned a TGI of 11.5 µM.

Regarding `CCC(CCCN)Nc1cc(OC)cc2c(C)ccnc12` (configuration not stated), the TGI was 36.6 µM.

The subject of another test is NCI-H460 lung. Kind of test: NCI tumour cell line growth inhibition, 48 h.
Take `CCOC(=O)C1C(c2ccc3c(c2)OCO3)c2c([nH][nH]c2=O)CC1(C)O` (configuration not stated): the TGI was > 100 µM.

With `NC(N)=NCC[C@H](NC(=O)OCCCCCn1ccc(=O)[nH]c1=O)C(=O)O`, the TGI was > 100 µM.
